Holding throughout (assay type): cell-based
In one experiment the test system is HbF. The experiment can be described thus: HbF HiBiT induction assay in HUDEP-2 cells. The conditions noted are these: HUDEP-2 cells with HiBiT tag in HBG1/2, 72 hours of treatment; area under the dose response curve, higher AUC = greater HbF induction. On the procedure: HbF HiBiT induction assay. The HiBiT induction assay for HbF in HUDEP-2 cells was performed as described below. HUDEP-2 cells engineered to express a HiBiT tag in HBG1/2 were maintained at a density of 0.1-1×10^6 cells/ml in StemSpan SFEM II supplemented with 1% penicillin/streptomycin, hSCF (50 ng/mL), erythropoietin (EPO; 3 IU/mL), dexamethasone (DEX; 0.4 μg/mL), and doxycycline hyclate (DOX; 1 μg/mL). The cells were cultured in low adherence flasks, in a humidified incubator, set at 37° C. with 5% CO2. Cell counts and viability were measured by trypan blue exclusion using the Vi-CELL XR cell viability analyzer and the cell growth was consistently maintained in log phase.
Prior to the start of experiments, HbF HiBiT-tagged HUDEP-2 cells were transferred to a 50 mL conical and centrifuged at 500×g for 5 minutes, the supernatant removed, and the pellet washed in 5 mL of 1×PBS. The washed cells were centrifuged again at 500×g for 5 minutes and resuspended in IMDM containing; 1×glutamine, 1×penicillin/streptomycin, holo-transferrin (330 μg/mL), heparin (2 IU/mL), r-human insulin (10 μg/mL), EPO (3 IU/mL), 5% human plasma, hSCF (100 ng/mL) and DOX (1 μg/mL) to a final density of 0.3×10^6 cells/mL. Forty microliters of cell suspension were dispensed into 384-well Low Flange White Flat Bottom Polystyrene TC-treated Microplates containing pre-dispensed compounds, using a VIAFLO 384 liquid hander, and placed in a humidified incubator at 37° C. with 5% CO2. […] After 72 hours of treatment, 40 μL of Nano-Glo HiBiT Lytic Solution (prepared according to manufacturer's instructions) were dispensed into each well using a VIAFLO 384 liquid handler, and the plates were shaken for 20 seconds. Plates were incubated for 20 minutes at room temperature, and the luminescence was read as relative luminescent units using an EnVision plate reader.
Dose response curves were generated, and EC50, Ymax, and then area under the curve (AUC) values were calculated. HbF induction was measured using the calculated area under the curve (AUC) value, with higher AUC values indicative of greater HbF induction relative to lower AUC values.

The target in another experiment is T1, ZBTB7A (Homo sapiens, UniProt O95365+Q96SW2).
T1 construct: HUDEP-2 cells engineered to express a HiBiT tag in either the WIZ (Widely interspaced zinc finger) or ZBTB7A
The experiment can be described thus: HUDEP-2 ZBTB7A HiBiT degradation assay. The conditions noted are these: HiBiT-tagged ZBTB7A degradation in HUDEP-2 cells, 24 hours of treatment; read-out: ZBTB7A EC50. On the procedure:
(§1) WIZ Assay and ZBTB7A EC50 Assays. The HiBiT degradation assays for WIZ and ZBTB7A in HUDEP-2 cells were performed as described below. HUDEP-2 cells engineered to express a HiBiT tag in either the WIZ (Widely interspaced zinc finger) or ZBTB7A (Zinc Finger And BTB Domain Containing 7A) proteins were maintained in low attachment flasks in StemSpan SFEM II media supplemented with Penicillin-Streptomycin (50 U/mL), rhSCF (50 ng/mL), rhEPO (3 IU/mL), dexamethasone (0.4 μg/mL) and doxycycline (1 μg/mL). Prior to start of the assay, cell count and viability were measured by trypan blue exclusion using the Vi-cell XR cell viability analyzer.
For the HUDEP-2 ZBTB7A HiBiT assay, cell count and viability were measured by trypan blue exclusion using the Vi-cell XR cell viability analyzer and the cells were transferred to a 50 mL conical and centrifuged at 500 g for five minutes. Cells were resuspended in fresh IMDM media supplemented with L-Glutamine (1×), Penicillin-Streptomycin (50 U/mL), holo-transferrin (330 μg/mL), heparin (2 IU/mL), r-human Insulin (10 μg/mL), rhEPO (3 IU/mL), rhSCF (100 ng/mL)+Dox (1 μg/mL) and 5% human plasma in low attachment flasks, which were placed in a 37° C. incubator with 5% CO2. After 48 hours, cell count and viability were measured by trypan blue exclusion using the Vi-cell XR cell viability analyzer. The HUDEP-2 ZBTB7A cells were transferred to a 50 mL conical, centrifuged at 500 g for five minutes and resuspended at a density of 1.0×10^6 cells/ml in IMDM media supplemented with L-Glutamine (1×), Penicillin-Streptomycin (50 U/mL), holo-transferrin (330 μg/mL), heparin (2 IU/mL), r-human Insulin (10 μg/mL), rhEPO (3 IU/mL), rhSCF (100 ng/mL)+Dox (1 μg/mL) and 5% human plasma. Forty microliters of cell suspension was dispensed into 384-well Low Flange White Flat Bottom Polystyrene TC-treated Microplates containing pre-dispensed compounds, using a VIAFLO 384 liquid hander, and placed in a 37° C. incubator with 5% CO2. […] After 24 hours of treatment, 40 μL Nano-Glo HiBiT Lytic Detection System reagent was dispensed into each well using a VIAFLO 384 liquid hander. Plates were incubated for 25 minutes at room temperature and the luminescence was read as relative luminescent units using the EnVision plate reader. EC50 and Y-min values were calculated using curves calculated from dotmatics software after the normalization to the DMSO control of 10 different concentrations: 10, 3.33, 1.11, 0.37, 0.12, 0.04 0.0137, 0.0046, 0.0015 and […] respectively.

The next experiment deals with T2, WIZ (Homo sapiens, UniProt O95785+Q96SW2).
T2 construct: HUDEP-2 cells engineered to express a HiBiT tag in either the WIZ (Widely interspaced zinc finger) or ZBTB7A
The experiment can be described thus: HUDEP-2 WIZ HiBiT degradation assay. Particulars: HiBiT-tagged WIZ degradation in HUDEP-2 cells, 24 hours of treatment; read-out: WIZ EC50. How it is done:
as §1
For the HUDEP-2 WIZ HiBiT assay, cells were transferred to a 50 mL conical and centrifuged at 500 g for five minutes. Cells were resuspended in fresh StemSpan SFEM II media supplemented with Penicillin-Streptomycin (50 U/mL), rhSCF (50 ng/mL), rhEPO (3 IU/mL), dexamethasone (0.4 μg/mL) and doxycycline (1 μg/mL) at a density of 1.0×10^6 cells/ml. Forty microliters of cell suspension was dispensed into 384-well Low Flange White Flat Bottom Polystyrene TC-treated Microplates containing pre-dispensed compounds, using a VIAFLO 384 liquid hander, and placed in a 37° C. incubator with 5% CO2. […] After 24 hours of treatment, 40 μL Nano-Glo HiBiT Lytic Detection System reagent was dispensed into each well using a VIAFLO 384 liquid hander. Plates were incubated for 25 minutes at room temperature and the luminescence was read as relative luminescent units using the EnVision plate reader. EC50 and Y-min values were calculated using curves calculated from dotmatics software after the normalization to the DMSO control of 10 different concentrations: 10, 3.33, 1.11, 0.37, 0.12, 0.04 0.0137, 0.0046, 0.0015 and […] respectively.

The results in this text go back to patent US20250333407A1, “Compounds and Their Use for Treatment of Hemoglobinopathies” (Bristol-Myers Squibb Company, priority 2024, published 2025).

T2 sequence (O95785 whole entry): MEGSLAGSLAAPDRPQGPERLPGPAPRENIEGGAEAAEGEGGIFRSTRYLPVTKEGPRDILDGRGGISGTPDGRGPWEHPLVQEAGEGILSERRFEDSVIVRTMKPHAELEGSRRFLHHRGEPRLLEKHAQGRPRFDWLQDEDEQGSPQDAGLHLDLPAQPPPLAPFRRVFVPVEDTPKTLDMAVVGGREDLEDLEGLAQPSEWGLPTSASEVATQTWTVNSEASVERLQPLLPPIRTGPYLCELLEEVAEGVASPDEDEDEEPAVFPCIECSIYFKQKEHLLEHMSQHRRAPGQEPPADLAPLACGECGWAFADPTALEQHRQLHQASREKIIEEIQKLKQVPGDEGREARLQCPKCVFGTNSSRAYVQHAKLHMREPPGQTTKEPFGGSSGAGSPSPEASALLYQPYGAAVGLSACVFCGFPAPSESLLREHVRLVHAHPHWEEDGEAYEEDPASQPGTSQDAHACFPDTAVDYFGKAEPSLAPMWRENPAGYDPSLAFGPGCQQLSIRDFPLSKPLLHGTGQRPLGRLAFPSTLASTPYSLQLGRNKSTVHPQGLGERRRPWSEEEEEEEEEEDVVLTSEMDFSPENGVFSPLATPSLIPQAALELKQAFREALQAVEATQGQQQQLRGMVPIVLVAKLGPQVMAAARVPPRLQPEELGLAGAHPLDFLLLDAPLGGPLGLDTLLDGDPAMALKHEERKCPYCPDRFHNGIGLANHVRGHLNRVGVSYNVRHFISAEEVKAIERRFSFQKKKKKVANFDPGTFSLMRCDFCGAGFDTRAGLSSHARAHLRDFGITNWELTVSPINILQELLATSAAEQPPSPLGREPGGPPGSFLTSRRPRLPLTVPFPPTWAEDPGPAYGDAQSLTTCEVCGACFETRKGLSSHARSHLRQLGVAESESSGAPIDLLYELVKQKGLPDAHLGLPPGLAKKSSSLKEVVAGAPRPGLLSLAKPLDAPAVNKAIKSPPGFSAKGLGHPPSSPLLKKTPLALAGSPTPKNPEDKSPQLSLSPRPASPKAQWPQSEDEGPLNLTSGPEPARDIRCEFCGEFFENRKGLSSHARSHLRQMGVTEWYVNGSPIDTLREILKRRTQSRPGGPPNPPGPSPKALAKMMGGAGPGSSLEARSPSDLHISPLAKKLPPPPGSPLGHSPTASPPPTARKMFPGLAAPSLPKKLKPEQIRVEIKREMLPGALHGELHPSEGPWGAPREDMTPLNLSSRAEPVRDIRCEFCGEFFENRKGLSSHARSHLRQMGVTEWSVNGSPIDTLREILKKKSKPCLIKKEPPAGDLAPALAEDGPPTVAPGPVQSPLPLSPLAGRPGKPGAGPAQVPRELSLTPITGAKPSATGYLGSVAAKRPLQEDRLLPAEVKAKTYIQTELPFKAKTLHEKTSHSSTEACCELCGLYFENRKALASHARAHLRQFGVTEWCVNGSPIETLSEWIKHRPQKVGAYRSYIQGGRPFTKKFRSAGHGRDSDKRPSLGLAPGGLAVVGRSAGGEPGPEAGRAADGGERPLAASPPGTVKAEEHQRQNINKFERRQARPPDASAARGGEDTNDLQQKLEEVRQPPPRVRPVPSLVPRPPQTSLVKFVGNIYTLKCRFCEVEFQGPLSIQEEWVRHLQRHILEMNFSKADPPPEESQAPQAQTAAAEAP
T2 sequence (Q96SW2 whole entry): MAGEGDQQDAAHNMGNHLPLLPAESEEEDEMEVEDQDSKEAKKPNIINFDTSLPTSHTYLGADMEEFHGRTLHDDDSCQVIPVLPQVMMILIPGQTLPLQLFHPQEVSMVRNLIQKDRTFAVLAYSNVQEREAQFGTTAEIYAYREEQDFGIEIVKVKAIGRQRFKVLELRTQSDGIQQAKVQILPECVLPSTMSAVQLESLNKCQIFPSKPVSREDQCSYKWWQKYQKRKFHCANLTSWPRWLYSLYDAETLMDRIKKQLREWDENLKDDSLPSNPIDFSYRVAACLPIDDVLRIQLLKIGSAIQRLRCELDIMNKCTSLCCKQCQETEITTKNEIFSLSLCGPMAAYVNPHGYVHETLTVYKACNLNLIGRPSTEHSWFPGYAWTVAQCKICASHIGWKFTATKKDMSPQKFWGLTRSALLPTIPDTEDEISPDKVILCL
T2 sequence (Q16531 whole entry partner): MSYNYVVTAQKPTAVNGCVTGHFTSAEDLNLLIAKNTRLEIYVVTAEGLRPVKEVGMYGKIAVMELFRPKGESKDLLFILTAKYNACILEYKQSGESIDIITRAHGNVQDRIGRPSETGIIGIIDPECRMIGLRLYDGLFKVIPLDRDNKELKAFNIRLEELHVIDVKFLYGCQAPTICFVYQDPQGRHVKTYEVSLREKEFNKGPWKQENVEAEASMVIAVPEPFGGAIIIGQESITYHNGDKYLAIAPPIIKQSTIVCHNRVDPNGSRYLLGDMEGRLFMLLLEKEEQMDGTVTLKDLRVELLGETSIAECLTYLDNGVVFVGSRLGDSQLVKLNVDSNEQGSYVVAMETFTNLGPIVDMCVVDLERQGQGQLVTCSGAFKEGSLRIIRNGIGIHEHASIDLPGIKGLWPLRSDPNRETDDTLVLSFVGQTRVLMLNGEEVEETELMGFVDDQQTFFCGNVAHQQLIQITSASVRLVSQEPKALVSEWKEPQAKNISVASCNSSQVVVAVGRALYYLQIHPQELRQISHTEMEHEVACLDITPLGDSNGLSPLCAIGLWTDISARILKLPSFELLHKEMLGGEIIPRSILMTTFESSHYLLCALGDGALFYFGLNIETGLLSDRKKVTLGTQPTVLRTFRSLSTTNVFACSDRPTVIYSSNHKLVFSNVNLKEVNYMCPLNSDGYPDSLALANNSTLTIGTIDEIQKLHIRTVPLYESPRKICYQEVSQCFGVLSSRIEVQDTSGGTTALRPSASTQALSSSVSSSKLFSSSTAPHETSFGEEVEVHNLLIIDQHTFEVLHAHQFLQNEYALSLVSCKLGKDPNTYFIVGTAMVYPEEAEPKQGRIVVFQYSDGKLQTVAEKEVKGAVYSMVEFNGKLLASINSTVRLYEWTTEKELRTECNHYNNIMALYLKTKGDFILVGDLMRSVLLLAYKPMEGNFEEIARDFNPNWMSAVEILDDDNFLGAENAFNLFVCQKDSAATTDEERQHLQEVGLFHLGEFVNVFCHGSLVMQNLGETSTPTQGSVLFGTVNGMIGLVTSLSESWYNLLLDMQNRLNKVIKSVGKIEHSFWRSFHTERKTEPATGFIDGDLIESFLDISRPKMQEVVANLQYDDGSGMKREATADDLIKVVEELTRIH
T1 sequence (O95365 whole entry): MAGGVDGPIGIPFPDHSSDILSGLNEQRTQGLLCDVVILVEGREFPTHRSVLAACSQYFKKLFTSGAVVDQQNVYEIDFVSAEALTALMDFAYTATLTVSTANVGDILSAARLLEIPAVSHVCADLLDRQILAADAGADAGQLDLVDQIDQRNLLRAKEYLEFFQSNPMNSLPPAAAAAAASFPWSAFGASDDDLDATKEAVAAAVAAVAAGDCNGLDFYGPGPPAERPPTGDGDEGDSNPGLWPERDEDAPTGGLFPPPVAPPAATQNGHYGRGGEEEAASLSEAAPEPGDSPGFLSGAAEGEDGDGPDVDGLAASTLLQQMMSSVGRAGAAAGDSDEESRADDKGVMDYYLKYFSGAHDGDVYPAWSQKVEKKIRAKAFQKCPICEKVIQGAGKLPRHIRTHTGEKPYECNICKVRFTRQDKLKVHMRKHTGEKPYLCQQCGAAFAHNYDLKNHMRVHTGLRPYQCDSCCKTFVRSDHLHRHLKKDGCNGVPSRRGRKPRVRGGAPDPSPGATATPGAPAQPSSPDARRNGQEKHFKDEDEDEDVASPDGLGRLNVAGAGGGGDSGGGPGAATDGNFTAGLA
T1 sequence (Q96SW2 whole entry): as the sequence (Q96SW2 whole entry) above
T1 sequence (Q16531 whole entry partner): as the sequence (Q16531 whole entry partner) above

Take `Cc1cc(-c2cc3c(cc2Nc2cccc4c2C(=O)N(C2CCC(=O)NC2=O)C4=O)N(C)CCO3)ccn1` (centres unmarked) [Compound 1, 2-(2,6-dioxopiperidin-3-yl)-4-((4-methyl-7-(2-methylpyridin-4-yl)-3,4-dihydro-2H-benzo[b][1,4]oxazin-6-yl)amino)isoindoline-1,3-dione]: the “HBF AUC” value in the experiment with HbF was “+ (+ = 15 ≤ AUC < 100)”. Moreover, the DC50 on ZBTB7A was found to be 18 nM; at WIZ, 21 nM.

For `Cc1cc(-c2cc3c(cc2Nc2cccc4c2C(=O)N(C2CCC(=O)NC2=O)C4=O)N(C)C(=O)CO3)ccn1` (centres unmarked) [Compound 2, 2-(2,6-dioxopiperidin-3-yl)-4-((4-methyl-7-(2-methylpyridin-4-yl)-3-oxo-3,4-dihydro-2H-benzo[b][1,4]oxazin-6-yl)amino)isoindoline-1,3-dione], the “HBF AUC” value in the experiment on HbF is listed as “+++ (+++ = AUC ≥ 150)”. For the same compound, the results for the DC50 at ZBTB7A and at WIZ were 11 nM and 6 nM, respectively.

`Cc1cc(-c2cc3c(cc2Nc2cccc4c2C(=O)N([C@H]2CCC(=O)NC2=O)C4=O)N(C)[C@H](C)CO3)ccn1` [Compound 3, 4-(((R)-3,4-dimethyl-7-(2-methylpyridin-4-yl)-3,4-dihydro-2H-benzo[b][1,4]oxazin-6-yl)amino)-2-((S)-2,6-dioxopiperidin-3-yl)isoindoline-1,3-dione]: the “HBF AUC” value in the experiment with HbF is “+++ (+++ = AUC ≥ 150)”. The values for the DC50 on ZBTB7A and on WIZ were 29 nM and 17 nM, respectively.

As to `Cc1cc(-c2cc3c(cc2Nc2cccc4c2C(=O)N([C@H]2CCC(=O)NC2=O)C4=O)N(C)[C@@H](C)CO3)ccn1` [Compound 4, 4-(((S)-3,4-dimethyl-7-(2-methylpyridin-4-yl)-3,4-dihydro-2H-benzo[b][1,4]oxazin-6-yl)amino)-2-((S)-2,6-dioxopiperidin-3-yl)isoindoline-1,3-dione], the “HBF AUC” value in the experiment on HbF is recorded as “+++ (+++ = AUC ≥ 150)”. For the same compound, the DC50 at ZBTB7A worked out at 26 nM; on WIZ, 83 nM.

Consider `Cc1cc(-c2cc3c(cc2Nc2cccc4c2C(=O)N([C@H]2CCC(=O)NC2=O)C4=O)N(C)C(=O)[C@H](C)O3)ccn1` [Compound 5, 4-(((S)-2,4-dimethyl-7-(2-methylpyridin-4-yl)-3-oxo-3,4-dihydro-2H-benzo[b][1,4]oxazin-6-yl)amino)-2-((S)-2,6-dioxopiperidin-3-yl)isoindoline-1,3-dione], for which, in the experiment on HbF, the “HBF AUC” value is listed as “+ (+ = 15 ≤ AUC < 100)”. In addition, the DC50 on ZBTB7A was 19 nM; on WIZ it was 15 nM.

Consider `Cc1cc(-c2cc3c(cc2Nc2cccc4c2C(=O)N([C@H]2CCC(=O)NC2=O)C4=O)N(C)C(=O)[C@@H](C)O3)ccn1` [Compound 6, 4-(((R)-2,4-dimethyl-7-(2-methylpyridin-4-yl)-3-oxo-3,4-dihydro-2H-benzo[b][1,4]oxazin-6-yl)amino)-2-((S)-2,6-dioxopiperidin-3-yl)isoindoline-1,3-dione], for which the “HBF AUC” value with HbF was “+ (+ = 15 ≤ AUC < 100)”. Besides, the DC50 at ZBTB7A stood at 49 nM; on WIZ it was 9 nM.

Consider `Cc1cc(-c2cc3c(cc2Nc2cccc4c2C(=O)N([C@H]2CCC(=O)NC2=O)C4=O)N(C)C(=O)CO3)c(F)cn1` [Compound 7, (S)-2-(2,6-dioxopiperidin-3-yl)-4-((7-(5-fluoro-2-methylpyridin-4-yl)-4-methyl-3-oxo-3,4-dihydro-2H-benzo[b][1,4]oxazin-6-yl)amino)isoindoline-1,3-dione], for which the “HBF AUC” value with HbF is listed as “+++ (+++ = AUC ≥ 150)”. Moreover, the DC50 on ZBTB7A was found to be 9 nM; at WIZ, 7 nM.

Regarding `Cc1cc(-c2cc3c(cc2Nc2cccc4c2C(=O)N([C@H]2CCC(=O)NC2=O)C4=O)N(C)C(=O)CO3)cc(C)n1` [Compound 8, (S)-4-((7-(2,6-dimethylpyridin-4-yl)-4-methyl-3-oxo-3,4-dihydro-2H-benzo[b][1,4]oxazin-6-yl)amino)-2-(2,6-dioxopiperidin-3-yl)isoindoline-1,3-dione], the “HBF AUC” value with HbF is “+++ (+++ = AUC ≥ 150)”. Moreover, the DC50 at ZBTB7A was found to be 21 nM; at WIZ, 15 nM.

In the case of `CN1C(=O)COc2cc(-c3ccnc(C(F)F)c3)c(Nc3cccc4c3C(=O)N([C@H]3CCC(=O)NC3=O)C4=O)cc21` [Compound 9, (S)-4-((7-(2-(difluoromethyl)pyridin-4-yl)-4-methyl-3-oxo-3,4-dihydro-2H-benzo[b][1,4]oxazin-6-yl)amino)-2-(2,6-dioxopiperidin-3-yl)isoindoline-1,3-dione], in the experiment on HbF, the “HBF AUC” value is “+ (+ = 15 ≤ AUC < 100)”. In addition, the DC50 at ZBTB7A worked out at 32 nM; on WIZ it was 24 nM.

For `Cc1cc(-c2cc3c(cc2Nc2cccc4c2C(=O)N([C@H]2CCC(=O)NC2=O)C4=O)N(C)C(=O)CO3)cc(N)n1` [Compound 10, (S)-4-((7-(2-amino-6-methylpyridin-4-yl)-4-methyl-3-oxo-3,4-dihydro-2H-benzo[b][1,4]oxazin-6-yl)amino)-2-(2,6-dioxopiperidin-3-yl)isoindoline-1,3-dione], in the experiment on HbF, the “HBF AUC” value is reported as “++ (++ = 100 ≤ AUC < 150)”. The DC50 worked out at 20 nM on ZBTB7A and 12 nM at WIZ.

For the compound `Cc1cc(-c2cc3c(cc2Nc2cccc4c2C(=O)N(C2CCC(=O)NC2=O)C4=O)N(C)C(=O)C(C)(C)C3)ccn1` (centres unmarked) [Compound 85, 2-(2,6-dioxopiperidin-3-yl)-4-((1,3,3-trimethyl-6-(2-methylpyridin-4-yl)-2-oxo-1,2,3,4-tetrahydroquinolin-7-yl)amino)isoindoline-1,3-dione], the DC50 at ZBTB7A was 43 nM; at WIZ, 26 nM.
